Reference: patent US12403141B2, “Deuterated MK2 pathway inhibitors and methods of using the same” (ACLARIS THERAPEUTICS, INC., priority 2019, dated 2025)

Legend:
minipig hepatocytes = assay: In vitro metabolite profile in minipig hepatocytes; format: in vitro ADME; set-up: key to UV % at 280-290 nm or observed (+ or --), metabolite M532b (Hydroxylation) / UV % at 280-290 nm or observed (+ or --), metabolite M532c (Hydroxylation) / UV % at 280-290 nm or observed (+ or --), metabolite M563 (O-dealkylation + Glucuronidation) / UV % at 280-290 nm or observed (+ or --), metabolite M530b (Hydroxylation) / UV % at 280-290 nm or observed (+ or --), metabolite M530c (Hydroxylation): +: only detected by MS; --: not detected or trace; conditions: 10 μM; for UV % at 280-290 nm, Parent-T0 min: T0 min (normalized as 100%)
Method: (§1) Briefly, each test compound (final concentration of 10 μM containing 0.1% DMSO) was incubated with rat, dog, minipig, monkey, or human hepatocytes (final viable cell density of 1×10^6 cells/mL) at 37° C. with 5% CO2 in HI hepatocyte maintenance media (BIOIVT; Catalog #Z99009) for 120 minutes. Reactions were initiated by combining 200 μL of pre-warmed 2× dosing solution containing 20 μM test compound and 0.2% DMSO in HI maintenance media with 200 μL of pre-warmed hepatocyte solution containing 2×10^6 cells/mL in HI maintenance media. Samples were taken at 0 minutes (T0) and 120 minutes (T120) by quenching the reaction with 1200 μL acetonitrile. After quenching, the samples were sonicated for 2 minutes and then centrifuged at 1400 rpm for 5 minutes. A 1400-μL aliquot of the supernatant was evaporated under a stream of N2 until dry. The dried extracts were then reconstituted with 200 μL acetonitrile: H2O (1:3 v/v), vortexed for 2 minutes and centrifuged at 14000 rpm for 5 minutes. A 2-μL aliquot of the supernatant was injected onto a Xevo UPLC-UV-G2-S Q-Tof system (Waters®) with positive-ion electrospray ionization for analysis. Chromatographic separation was achieved on an Acquity UPLC®BEH C18 column (2.1×50 mm, 1.7 μm; Waters®) by gradient elution using varying proportions of mobile phase A (H2O with 0.1% formic acid) and mobile phase B (acetonitrile with 0.1% formic acid) at a constant flow rate of 400 μL/minute over a total run time of 10 minutes. LC-UV-MS extract ion chromatograms (EIC) of the T120 samples were compared to the T0 samples to identify the major putative metabolites which were named as Mm/z.

[1] = system: rat, dog, minipig, monkey, and human hepatocytes; assay: In vitro metabolite profile in hepatocytes, summary across species; format: in vitro ADME; conditions: hepatocytes from rat, 10 μM, 120 min
Method: as §1, with “Chromatographic separation was achieved on an Acquity UPLC®BEH C18 column (2.1×50 mm, 1.7 μm; Waters®) by gradient elution using varying proportions of mobile phase A (H2O with 0.1% formic acid) and mobile phase B (acetonitrile with 0.1% formic acid) at a constant flow rate of 400 μL/minute over a total run time of 10 minutes. LC-UV-MS extract ion chromatograms (EIC) of the T120 samples were compared to the T0 samples to identify the major putative metabolites which were named as Mm/z.” left out

[2] = 120 min, relative to parent at T0

Row | SMILES | UV % at 280-290 nm or observed (+ or --), metabolite M387 (O-dealkylation) (minipig hepatocytes; [2]) [%] | UV % at 280-290 nm or observed (+ or --), metabolite M530b (Hydroxylation) (minipig hepatocytes; [2]) | UV % at 280-290 nm or observed (+ or --), metabolite M530c (Hydroxylation) (minipig hepatocytes; [2]) | UV % at 280-290 nm or observed (+ or --), metabolite M530e (Hydroxylation) (minipig hepatocytes; [2]) [%] | UV % at 280-290 nm or observed (+ or --), metabolite M563 (O-dealkylation + Glucuronidation) (minipig hepatocytes; [2]) | UV % at 280-290 nm or observed (+ or --), metabolite M530d (Hydroxylation) (minipig hepatocytes; [2]) [%] | UV % at 280-290 nm, Parent-T120 min (minipig hepatocytes; [2]) [%] | UV % at 280-290 nm, Parent-T0 min (minipig hepatocytes) [%] | UV % at 280-290 nm or observed (+ or --), metabolite M532b (Hydroxylation) (minipig hepatocytes; [2]) | UV % at 280-290 nm or observed (+ or --), metabolite M532c (Hydroxylation) (minipig hepatocytes; [2]) | total number of metabolites formed [1]
1 | Cc1cnc(-c2ccnc(C(C)(C)O)n2)cc1-n1c(C)cc(OCc2ncc(F)cc2F)c(Cl)c1=O (atropisomer, axis not shown; (P)) [Example 1-H2, (P)-3-chloro-4-((3,5-difluoropyridin-2-yl)methoxy)-2′-(2-(2-hydroxypropan-2-yl)pyrimidin-4-yl)-5′,6-dimethyl-2H-[1,4′-bipyridin]-2-one] | 14.4 | -- | + | 2.4 | + | 1.6 | 70.0 | 100.0 |  |  | 
2 | [2H]C([2H])(Oc1cc(C)n(-c2cc(-c3ccnc(C(C)(C)O)n3)ncc2C)c(=O)c1Cl)c1ncc(F)cc1F (single isomer, unassigned) [Example 1-D2, (P)-3-Chloro-4-((3,5-difluoropyridin-2-yl)methoxy-d2)-2′-(2-(2-hydroxypropan-2-yl)pyrimidin-4-yl)-5′,6-dimethyl-2H-[1,4′-bipyridin]-2-one] |  |  |  |  |  |  | 81.1 | 100.0 | + | + | 5
